molecular target: full-length recombinant human FYN A (Homo sapiens (Human), UniProt P06241); assay: ADP-Glo Kinase Assay of FYN kinase inhibition; format: biochemical; details: primary screen, initial compounds
Method in brief: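 ADP-Glo read-out of peptide phosphorylation after 90 min RT with 12.5 pmol ATP and 100 pg 12-mer substrate. Enzyme was N-GST full-length human FYN A from insect cells, 3 pg, pre-incubated 30 min with compound, 10 points from 10 μM top, 3-fold steps; IC50 from curve.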

Chain of full-length recombinant human FYN A (P06241 whole entry): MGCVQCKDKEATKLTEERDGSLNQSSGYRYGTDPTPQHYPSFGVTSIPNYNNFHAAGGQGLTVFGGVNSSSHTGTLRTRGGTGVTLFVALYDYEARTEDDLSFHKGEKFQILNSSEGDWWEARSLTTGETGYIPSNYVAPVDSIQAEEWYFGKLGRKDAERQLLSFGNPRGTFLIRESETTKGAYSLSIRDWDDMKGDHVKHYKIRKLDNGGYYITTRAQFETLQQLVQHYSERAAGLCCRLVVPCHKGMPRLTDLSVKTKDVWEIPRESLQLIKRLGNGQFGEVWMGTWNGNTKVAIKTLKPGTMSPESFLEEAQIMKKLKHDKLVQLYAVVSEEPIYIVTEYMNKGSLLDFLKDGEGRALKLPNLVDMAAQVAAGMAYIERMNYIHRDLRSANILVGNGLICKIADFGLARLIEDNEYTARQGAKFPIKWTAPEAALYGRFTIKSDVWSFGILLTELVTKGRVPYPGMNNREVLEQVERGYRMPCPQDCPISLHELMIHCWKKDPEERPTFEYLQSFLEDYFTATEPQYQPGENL

Row | IC50 [µM] | Structure (SMILES)
1 | 1.13 | CC(C)CNc1nn2c(-c3cccc(C(N)=O)c3)cnc2s1 [Compound 569, 3-[2-(isobutylamino)imidazo[2,1-b] [1,3,4]thiadiazol-5-yl]benzamide]
2 | 2.92 | OC1CCC(Nc2nn3c(-c4cccc(F)c4)cnc3s2)CC1 (stereo not drawn) [Compound 571, 4-[[5-(3-fluorophenyl)imidazo[2,1-b] [1,3,4]thiadiazol-2-yl]amino] cyclohexanol]
3 | 1.94 | c1cncc(-c2cnc3sc(NCc4cccs4)nn23)c1 [Compound 573, 5-(3-pyridyl)-N-(2-thienylmethyl) imidazo[2,1-b] [1,3,4]thiadiazol-2-amine]
4 | 2.13 | COc1ccc(-c2cnc3sc(NCc4ccncc4)nn23)cc1OC [Compound 574, 5-(3,4-dimethoxy-phenyl)-N-(4-pyridylmethyl) imidazo[2,1-b] [1,3,4]thiadiazol-2-amine]
5 | 5.25 | CC(=O)Nc1cc(-c2ccc(N)cc2)cn2c(-c3ccc(F)cc3)cnc12 [Compound 575, N-[6-(4-aminophenyl)-3-(4-fluorophenyl)imidazo[1,2-a]pyridin-8-yl]acetamide]
6 | 8.09 | Cn1cc(-c2cc(NC=O)c3ncc(-c4ccc(F)cc4)n3c2)cn1 [Compound 576, N-[3-(4-fluorophenyl)-6-(1-methylpyrazol-4-yl)imidazo[1,2-a]pyridin-8-yl]formamide]
7 | 1.18 | COc1cccc(-n2c(N)c(C(N)=O)c3nc4ccccc4nc32)c1 [Compound 577, 2-amino-1-(3-methoxyphenyl) pyrrolo[3,2-b]quinoxaline-3-carboxamide]
8 | 4.08 | Fc1cccc(-c2cnc3sc(NC4CCCCC4)nn23)c1 [Compound 578, N-cyclohexyl-5-(3-fluorophenyl) imidazo[2,1-d] [1,3,4]thiadiazol-2-amine]
9 | 3.16 | c1cncc(-c2cnc3sc(NCc4ccco4)nn23)c1 [Compound 579, N-(2-furylmethyl)-5-(3-pyridyl)imidazo [2,1-a][1,3,4] thiadiazol-2-amine]
10 | 5.64 | Cn1cc(-c2cnc3sc(NCc4ccco4)nn23)cn1 [Compound 580, N-(2-furylmethyl)-5-(1-methylpyrazol-4-yl)imidazo [2,1-b][1,3,4] thiadiazol-2-amine]
11 | 0.729 | COc1cncc(-c2cnc3sc(NCc4cccs4)nn23)c1 [Compound 581, 5-(5-methoxy-3-pyridyl)-N-(2-thienylmethyl) imidazo[2,1-b] [1,3,4]thiadiazol-2-amine]
12 | 2.75 | COc1ccc(-c2cnc3sc(NCC(C)C)nn23)cc1OC [Compound 582, 5-(3,4-dimethoxy-phenyl)-N-isobutyl-imidazo [2,1-b][1,3,4] thiadiazol-2-amine]
13 | 15.1 | CC(=O)c1cccc(-c2cnc3sc(NCC(C)C)nn23)c1 [Compound 583, 1-[3-[2-(isobutyl-amino)imidazo [2,1-a][1,3,4]thiadiazol-5-yl]phenyl] ethanone]
14 | 4.85 | c1cncc(-c2cnc3sc(NCC4CCOCC4)nn23)c1 [Compound 586, 5-(3-pyridyl)-N-(tetrahydropyran-4-ylmethyl) imidazo[2,1-b] [1,3,4]thiadiazol-2-amine]
15 | 9.65 | COc1ccc(CNc2nn3c(-c4cncc(OC)c4)cnc3s2)cc1 [Compound 588, N-[(4-methoxyphenyl)methyl]-5-(5-methoxy-3-pyridyl)imidazo [2,1-3][1,3,4] thiadiazol-2-amine]
16 | 1.08 | Cc1ccccc1CNc1nn2c(-c3cccnc3)cnc2s1 [Compound 589, N-(o-tolylmethyl)-5-(3-pyridyl) imidazo[2,1-b] [1,3,4]thiadiazol-2-amine]
17 | 30 | CN1CCN(c2ccc(Nc3cc4c(cn3)cc(-c3cccc(C(F)(F)F)c3)n4C)cc2)CC1 [Compound 590, 1-methyl-N-[4-(4-methylpiperazin-1-yl)phenyl]-2-[3-(trifluoromethyl)phenyl]pyrrolo [3,2-c]pyridin-6-amine]
18 | 16.8 | Cn1c(-c2cccc(C(F)(F)F)c2)cc2cnc(Nc3ccncn3)cc21 [Compound 591, 1-methyl-N-pyrimidin-4-yl-2-[3-(trifluoro-methyl)phenyl] pyrrolo[3,2-c]pyridin-6-amine]
19 | 12.9 | CN1CCN(c2ccc(Nc3cc4c(cn3)cc(-c3cccc(F)c3)n4C)cc2)CC1 [Compound 592, 2-(3-fluorophenyl)-1-methyl-N-[4-(4-methylpiperazin-1-yl)phenyl] pyrrolo[3,2-c]pyridin-6-amine]
20 | 9.09 | Cn1c(-c2cccc(F)c2)cc2cnc(Nc3ccncn3)cc21 [Compound 593, 2-(3-fluorophenyl)-1-methyl-N-pyrimidin-4-yl-pyrrolo[3,2-c]pyridin-6-amine]
21 | 4.07 | NC1=C(c2nc3ccccc3[nH]2)C(=O)CN1c1ccc2c(c1)OCO2 [Compound 594, 5-amino-4-(1H-benzimidazol-2-yl)-1-(1,3-benzodioxol-5-yl)-2H-pyrrol-3-one]
22 | 7.04 | CN1CCN(c2ccc(Nc3nccc4[nH]c(-c5ccc(C(=O)N(C)C)cc5)cc34)cc2)CC1 [Compound 595, N,N-dimethyl-4-[4-[4-(4-methylpiperazin-1-yl)anilino]-1H-pyrrolo[3,2-c]pyridin-2-yl]benzamide]
23 | 30 | COc1cc(OC)cc(-c2cc3c(N4CCOCC4)nccc3[nH]2)c1 [Compound 596, 4-[2-(3,5-dimethoxy-phenyl)-1H-pyrrolo[3,2-c]pyridin-4-yl]morpholine]
24 | 30 | COc1ccccc1-c1cc2c(Nc3ccc(NC(C)=O)cc3)nccc2[nH]1 [Compound 597, N-[4-[[2-(2-methoxyphenyl)-1H-pyrrolo[3,2-c]pyridin-4-yl]amino]phenyl] acetamide]
25 | 30 | COc1ccccc1-c1cc2c(Nc3cccc(C(F)(F)F)c3)nccc2n1C [Compound 598, 2-(2-methoxyphenyl)-1-methyl-N-[3-(trifluoromethyl)phenyl]pyrrolo [3,2-c]pyridin-4-amine]
26 | 18.4 | COc1ccc(OC)c(-n2c(-c3ccc(F)cc3)cn3c4c(=O)[nH]c(=O)n(C)c4nc23)c1 [Compound 599, 8-(2,5-dimethoxy-phenyl)-7-(4-fluorophenyl)-1-methyl-3H-imidazo [1,2-g]purine-2,4-dione]
27 | 2.26 | COC(=O)c1c(N)n(-c2cccc(O)c2)c2nc3ccccc3nc12 [Compound 600, methyl 2-amino-1-(3-hydroxy-phenyl)pyrrolo [3,2-b]quinoxaline-3-carboxylate]

Row | Structure (SMILES) | IC50 [µM]
28 | COc1ccc(-c2cnc3sc(NC4CCC(O)CC4)nn23)cc1OC (stereo not drawn) [Compound 572, 4-[[5-(3,4-dimethoxyphenyl)imidazo[2,1-b] [1,3,4]thiadiazol-2-yl]amino] cyclohexanol] | 0.483
29 | c1ccc(CNc2nn3c(-c4cccnc4)cnc3s2)cc1 [Compound 584, N-benzyl-5-(3-pyridyl)imidazo [2,1-b][1,3,4] thiadiazol-2-amine] | 0.839
30 | COc1cncc(-c2cnc3sc(NCc4ccccc4)nn23)c1 [Compound 585, N-benzyl-5-(5-methoxy-3-pyridyl)imidazo [2,1-b][1,3,4] thiadiazol-2-amine] | 0.343
31 | COc1cncc(-c2cnc3sc(NCC4CCOCC4)nn23)c1 [Compound 587, 5-(5-methoxy-3-pyridyl)-N-(tetrahydro-pyran-4-ylmethyl)imidazo [2,1-d][1,3,4] thiadiazol-2-amine] | 0.384

tested on: not given; assay: not given; details: Fyn knockout strains; cited from earlier work

Row | Structure (SMILES) | lipid utilization and energy utilization
32 | CN(C)S(=O)(=O)c1ccc2c(c1)/C(=C/c1cc3c([nH]1)CCCC3)C(=O)N2 [SU6656] | no increase in either parameter

same assay, conditions: treated mice relative to untreated control mice; cited from earlier work

Row | Structure (SMILES) | fat mass
33 | CN(C)S(=O)(=O)c1ccc2c(c1)/C(=C/c1cc3c([nH]1)CCCC3)C(=O)N2 [SU6656] | significantly reduced

From patent US10688093B2, “Methods, compositions, and uses of novel Fyn kinase inhibitors” (priority 2015, dated 2020)
